Test results published in patent US20260193296A1 (priority 2023, published 2026).
Read-outs that look alike come from different tables or passages of the source. Ends that are not written are not given here.

Columns and labels:
[1] = tested on: Huanglongbing pathogen CLas; type: cell-based, Candidatus Liberibacter asiaticus (CLas); conditions: for CLas titer in infected leaf midribs: 1 μM artificially synthesized peptide; for number of pathogens in citrus infected with Huanglongbing: summary statement, demonstrated by experiments
CLas cells = type: cell-based, Candidatus Liberibacter asiaticus (CLas); conditions: for lysis of Huanglongbing pathogens: summary statement, demonstrated by experiments
[2] = tested on: Huanglongbing pathogen CLas; type: in vivo, Candidatus Liberibacter asiaticus (CLas)
Huanglongbing pathogens = type: in vivo, citrus (Chunmi orange); conditions: field, whole plant, same injection method, two months after treatment; FIG. 6
[3] = tested on: Huanglongbing pathogen CLas; type: cell-based, Candidatus Liberibacter asiaticus (CLas); conditions: for inhibitory effect on CLas after heat pretreatment: used at 1 μM, 48 h, compared with BSA, FIG. 4D
[4] = tested on: Huanglongbing pathogen CLas; conditions: for IC50: read-out: CLas half inhibitory concentration (IC50), treated for 48 hours, FIG. 4C

Row | Sequence | CLas titer in infected leaf midribs ([1]; 48 h, FIG. 4A) | number of pathogens in citrus infected with Huanglongbing [1] | lysis of Huanglongbing pathogens (CLas cells) | other results
1 | DPMIWGYVMLNDRLSK [AMP9-16, truncated peptide of AMP9] | significantly reduce the CLas titer | reduce the number of pathogens | promote lysis of Huanglongbing pathogens | –
2 | DPMIWGYVMLNDSK [AMP-β, variant containing conserved β-sheet region; synthesized and also made by prokaryotic expression] | significantly reduce the CLas titer | reduce the number of pathogens | promote lysis of Huanglongbing pathogens | –
3 | DPMIWGYVMLSESK [AMP3-14, DPMIWGYVMLSESK] | significantly reduce the CLas titer | reduce the number of pathogens | promote lysis of Huanglongbing pathogens | CLas titer in infected leaf veins ([1]; 100 nM artificially synthesized peptide, 48 h, FIG. 4A): significantly reduce the CLas titer; symptoms of yellowing in leaves of infected plants ([2]; 1 μM solution, continuous trunk infusion, 6 months, FIG. 5B): disappeared; Ct value of CLas in infected plants ([2]; 1 μM solution, continuous trunk infusion, 6 months, FIG. 5C): not significantly different from that of healthy plants; Ct value of CLas in treated plants after removal of treatment ([2]; treatment removed after 7 months, titer monitored continuously): still not significantly different from that of healthy plants; growth of new citrus leaves (Huanglongbing pathogens): significantly promote the growth of new citrus leaves; thermal stability ([3]; 35° C. and 45° C. for 20 hours): good thermal stability; inhibitory effect on CLas after heat pretreatment ([3]; pretreated at 35° C. for 20 hours): still significant; inhibitory effect on CLas after heat pretreatment ([3]; pretreated at 45° C. for 20 hours): still significant; effectiveness in reducing the CLas titer compared with AMP3 ([4]; from IC50 values at 48 hours): more effective in reducing the CLas titer; IC50 [4]: 1 µM; destruction of pathogenic cells compared with AMP3 (transmission electron microscope) (CLas cells; 1 μM, 24 hours, FIG. 7): better effect on the destruction of pathogenic cells
4 | DPMIWGYVMLSESKDPMIWGYVMLNDSK [AMP-2β, dimer of β-sheet fragments obtained by prokaryotic expression and purification] | – | reduce the number of pathogens | promote lysis of Huanglongbing pathogens | –
5 | MKKVKNIFHKIANA [AMP-α, contains only an α-helix fragment] | not able to change the CLas titer | – | – | –
6 | MKKVKNIFHKIANADPMIWGYVML [AMP3-24, truncated peptide of AMP3] | – | reduce the number of pathogens | promote lysis of Huanglongbing pathogens | –
7 | MKKVKNIFHKIANADPMIWGYVMLNDRLSK [AMP9] | significantly reduce the CLas titer | reduce the number of pathogens | promote lysis of Huanglongbing pathogens | –
8 | MKKVKNIFHKIANADPMIWGYVMLSESK [AMP3] | significantly reduce the CLas titer | reduce the number of pathogens | promote lysis of Huanglongbing pathogens | IC50 [4]: 52.1 µM
